Measured values from patent EP1282414B1, “FELBAMATE DERIVED COMPOUNDS FOR TREATING NEUROPATHIC PAIN” (University of Virginia Patent Foundation, priority 2000, dated 2001).

What was measured:
Format in all cases: in vivo
mice [1] = assay: Toxicity, mice oral; settings: oral administration
Experimental: Toxicity induced by a compound is detected in mice using the standardized rotorod test described by Dunham & Miya (1957). Untreated control mice, when placed on a 6 r.p.m. rotation rod, can maintain their equilibrium for a prolonged period of time.
Toxicity across time doe not occur until dosages of 300mg/kg. […] Quantitative results obtained for fluoro felbamate 12 in mice indicated a MES ED50 of approximately 20 mg/kg with a safety ratio of at least five (see Table 3). Results obtained for oral administration of fluoro felbamate 12 to rats indicated a MES ED50 of about 3 mg/kg with no toxicity at doses up to 500 mg/kg.

[2] = system: MES-induced seizure spread; assay: Maximal Electroshock Seizure (MES) test, mice i.p.; settings: for MES, number of animals protected / total number of animals tested: mice i.p.
Source text: (§1) The fluoro derivatives synthesized were submitted to the National Institute of Neurological Disorders and Stroke (NINDS) for evaluation in a standard panel of assays. Two convulsant tests (MES and scMET), and a toxicity screen (rotorod in mice, positional sense and gait in rats) were employed for evaluating the compounds activity as neuroprotecting agents. These testing procedures are described in detail in Molecular and Cellular Targets for Anti-epileptic Drugs, eds. G. Avanzini, G. Regesta, P. Tanganelli, M. Avoli, 1997, John Libbey & Company Ltd, pp 191-198. The felbamate derivatives were evaluated for anticonvulsant activity following intraperitoneal (i.p.) administration in mice and oral administration in rats.
The MES test is a model for generalized tonic-clonic seizures and is used to identify compounds which prevent seizure spread. The behavioral and electrographic seizures generated in this model are consistent with the human disorder. In the MES test, an electrical stimulus of 0.2 s in duration (50 mA in mice and 150 mA in rat at 60Hz) was delivered via corneal electrodes primed with an electrolyte solution containing an anesthetic agent. […] Rats were tested at time intervals between 0.25 and 4 hours following a standard oral dose of 30 mg/kg. Abolition of the hindlimb tonic extensor component indicates the test compound's ability to inhibit MES-induced seizure spread.
For the MES and scMET tests the data is presented in the form of the number of animals protected by the administered compound / total number of animals tested. […] Qualitative data was obtained for fluoro felbamate 12 (Tables 1 and 2A), fluoro monocarbamate felbamate 13 (Tables 1 and 2B), and fluorodioxo 16 (Tables 1 and 2C) and for cyclic felbamate 21 (Tables 5 and 6B) and cyclic monocarbamate 22 (Tables 5 and 6A). More extensive quantitative data was also obtained for fluoro felbamate 12 in mice (Table 3) and rats (Table 4).

mice [3] = assay: Minimal neurotoxicity (TOX), rotorod test, mice i.p.; settings: for TOX, number of animals exhibiting toxic effects / total number of animals tested: mice i.p.
Source text: as §1, with “G. Avanzini, G. Regesta, P. Tanganelli, M. Avoli, 1997, John Libbey & Company Ltd, pp 191-198.” left out, “rats. […]” for “rats.”

[4] = as above; settings: in vivo, ip; mouse, I.P.
Source text: as §1, with “G. Avanzini, G. Regesta, P. Tanganelli, M. Avoli, 1997, John Libbey & Company Ltd, pp 191-198.” left out, “rats. […]” for “rats.”

Compound: NC(=O)OCC(F)(COC(N)=O)c1ccccc1 [fluoro felbamate, 2-Fluoro-2-phenyl-1,3-propanediol dicarbamate]
- no toxicity at doses up to (mice [1]): up to 218 mg/kg
- ED50 ([2]; Mus musculus, ip, read-out: MES ED50, mouse, I.P.): ~20 mg/kg
- MES, number of animals protected / total number of animals tested ([2]; 3 mg/kg, 0.5h): 0/4
- MES, number of animals protected / total number of animals tested ([2]; 3 mg/kg, 4.0h): 0/1
- MES, number of animals protected / total number of animals tested ([2]; 10 mg/kg, 0.5h): 0/4
- MES, number of animals protected / total number of animals tested ([2]; 10 mg/kg, 4.0h): 1/4
- MES, number of animals protected / total number of animals tested ([2]; 30 mg/kg, 0.5h): 1/1
- MES, number of animals protected / total number of animals tested ([2]; 30 mg/kg, 4.0h): 1/1
- MES, number of animals protected / total number of animals tested ([2]; 100 mg/kg, 0.5h): 3/3
- MES, number of animals protected / total number of animals tested ([2]; 100 mg/kg, 4.0h): 3/3
- MES, number of animals protected / total number of animals tested ([2]; 300 mg/kg, 0.5h): 1/1
- MES, number of animals protected / total number of animals tested ([2]; 300 mg/kg, 4.0h): 1/1
- MES ED50 ([2]; mouse, I.P.): 19.96 mg/kg
- TOX, number of animals exhibiting toxic effects / total number of animals tested (mice [3]; 3 mg/kg, 0.5h): 0/4
- TOX, number of animals exhibiting toxic effects / total number of animals tested (mice [3]; 3 mg/kg, 4.0h): 0/4
- TOX, number of animals exhibiting toxic effects / total number of animals tested (mice [3]; 10 mg/kg, 0.5h): 0/4
- TOX, number of animals exhibiting toxic effects / total number of animals tested (mice [3]; 10 mg/kg, 4.0h): 0/4
- TOX, number of animals exhibiting toxic effects / total number of animals tested (mice [3]; 30 mg/kg, 0.5h): 1/4
- TOX, number of animals exhibiting toxic effects / total number of animals tested (mice [3]; 30 mg/kg, 4.0h): 0/2
- TOX, number of animals exhibiting toxic effects / total number of animals tested (mice [3]; 100 mg/kg, 0.5h): 4/8
- TOX, number of animals exhibiting toxic effects / total number of animals tested (mice [3]; 100 mg/kg, 4.0h): 0/4
- TOX, number of animals exhibiting toxic effects / total number of animals tested (mice [3]; 300 mg/kg, 0.5h): 4/4
- TOX, number of animals exhibiting toxic effects / total number of animals tested (mice [3]; 300 mg/kg, 4.0h): 2/2
- safety ratio (mice [3]; mice, i.p., toxicity relative to MES ED50): at least five
- ED50 [4]: 115 mg/kg
